ChEMBL document CHEMBL1201862, “PubChem BioAssay data set” (2004)
Active and inactive are the calls of the source.

Tests used:
[1] = molecular target: Cysteine protease ATG4B (Homo sapiens, UniProt Q9Y4P1); format: functional;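 also: Fluorescence-based dose-response confirmation assay measuring inhibition of ATG4B activity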
[2] = molecular target: Phospholipase A2 (Homo sapiens, UniProt P04054); format: functional;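 also: confirmatory dose-response counterscreen on phospholipase A2, testing hits that came from an ultra-high-throughput screen for ATG4B inhibitors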
Phospholipase A2, sequence (P04054 whole entry): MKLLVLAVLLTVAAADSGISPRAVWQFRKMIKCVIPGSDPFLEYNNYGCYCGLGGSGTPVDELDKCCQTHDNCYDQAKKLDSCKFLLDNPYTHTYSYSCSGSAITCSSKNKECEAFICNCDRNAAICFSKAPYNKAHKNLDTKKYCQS

[3] = molecular target: Type-1 angiotensin II receptor (Homo sapiens, UniProt P30556); assay: AT1 receptor antagonists, dose response, selectivity assay for APJ receptor antagonist project, cell-based, uHTS hits (AID 463214); format: functional;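 also: antagonist potency against angiotensin II stimulated AT1 response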
Type-1 angiotensin II receptor, sequence (P30556 whole entry): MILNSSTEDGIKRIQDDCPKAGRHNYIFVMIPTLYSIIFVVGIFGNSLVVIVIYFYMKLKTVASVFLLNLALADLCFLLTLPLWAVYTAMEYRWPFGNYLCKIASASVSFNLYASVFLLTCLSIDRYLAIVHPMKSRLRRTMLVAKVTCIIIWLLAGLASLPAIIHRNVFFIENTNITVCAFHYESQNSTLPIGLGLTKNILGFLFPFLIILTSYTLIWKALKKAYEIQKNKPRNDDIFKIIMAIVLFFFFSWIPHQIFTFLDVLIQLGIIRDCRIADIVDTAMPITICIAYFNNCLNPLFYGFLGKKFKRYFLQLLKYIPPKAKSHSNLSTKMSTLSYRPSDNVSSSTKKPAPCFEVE

[4] = molecular target: Beta-galactosidase (Escherichia coli, UniProt Q8VNN2); assay: PubChem AID 485352; format: functional
Beta-galactosidase, sequence (Q8VNN2 whole entry): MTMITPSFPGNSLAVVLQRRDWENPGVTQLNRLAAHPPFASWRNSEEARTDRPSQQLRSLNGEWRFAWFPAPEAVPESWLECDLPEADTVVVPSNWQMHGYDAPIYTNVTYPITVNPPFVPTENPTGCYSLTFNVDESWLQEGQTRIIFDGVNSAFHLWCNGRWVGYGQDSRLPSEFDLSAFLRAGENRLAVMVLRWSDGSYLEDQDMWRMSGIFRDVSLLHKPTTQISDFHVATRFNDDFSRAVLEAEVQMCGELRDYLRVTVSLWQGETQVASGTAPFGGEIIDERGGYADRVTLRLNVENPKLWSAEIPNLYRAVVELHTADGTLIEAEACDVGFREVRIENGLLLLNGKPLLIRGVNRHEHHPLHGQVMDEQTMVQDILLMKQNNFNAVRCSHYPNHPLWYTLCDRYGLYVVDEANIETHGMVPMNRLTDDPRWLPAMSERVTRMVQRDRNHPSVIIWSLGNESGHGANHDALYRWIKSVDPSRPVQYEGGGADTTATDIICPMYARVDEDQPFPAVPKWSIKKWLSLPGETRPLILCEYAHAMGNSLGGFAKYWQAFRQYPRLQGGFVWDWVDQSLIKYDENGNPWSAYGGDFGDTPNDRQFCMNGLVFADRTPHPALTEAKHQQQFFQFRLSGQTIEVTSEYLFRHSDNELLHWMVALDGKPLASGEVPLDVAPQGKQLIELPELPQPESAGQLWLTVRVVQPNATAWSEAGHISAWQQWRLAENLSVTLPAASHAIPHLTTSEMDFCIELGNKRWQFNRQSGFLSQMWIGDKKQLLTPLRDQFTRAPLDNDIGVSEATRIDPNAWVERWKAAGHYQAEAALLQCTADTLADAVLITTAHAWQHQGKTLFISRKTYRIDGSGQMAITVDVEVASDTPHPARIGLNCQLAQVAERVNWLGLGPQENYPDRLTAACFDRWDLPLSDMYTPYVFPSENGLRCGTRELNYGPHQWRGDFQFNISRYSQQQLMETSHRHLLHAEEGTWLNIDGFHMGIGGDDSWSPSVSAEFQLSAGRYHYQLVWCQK

[5] = molecular target: Delta-type opioid receptor (Homo sapiens, UniProt P41143); assay: Counterscreen for agonists of heterodimerization of the mu 1 (OPRM1) and delta 1 (OPRD1) opioid receptors: Luminescence-based cell-based high throughput dose response assay to identify agonists of OPRD1 homodimerization. [Related pubchem assays (depositor defined):AID504326, AID504355, AID504692, AID504904, AID504905]; format: functional
Delta-type opioid receptor, sequence (P41143 whole entry): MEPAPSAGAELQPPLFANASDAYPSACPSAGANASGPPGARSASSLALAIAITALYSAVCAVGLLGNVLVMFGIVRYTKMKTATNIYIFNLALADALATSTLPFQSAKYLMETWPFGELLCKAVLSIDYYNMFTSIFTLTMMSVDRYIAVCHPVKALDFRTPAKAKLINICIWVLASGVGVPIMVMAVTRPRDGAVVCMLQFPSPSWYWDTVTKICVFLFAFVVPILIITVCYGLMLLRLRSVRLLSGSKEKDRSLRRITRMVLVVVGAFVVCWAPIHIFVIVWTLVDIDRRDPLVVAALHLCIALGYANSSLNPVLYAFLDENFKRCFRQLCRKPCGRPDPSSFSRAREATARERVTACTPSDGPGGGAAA

[6] = molecular target: T1, Short transient receptor potential channel 4 (Mus musculus, UniProt Q9QUQ5); assay: mouse TRPC4 channel activators, dose response, cell-based, HEK293 TRPC4/mu-opioid, Fluo-4 calcium (AID 434937); format: functional
T1 sequence (Q9QUQ5 whole entry): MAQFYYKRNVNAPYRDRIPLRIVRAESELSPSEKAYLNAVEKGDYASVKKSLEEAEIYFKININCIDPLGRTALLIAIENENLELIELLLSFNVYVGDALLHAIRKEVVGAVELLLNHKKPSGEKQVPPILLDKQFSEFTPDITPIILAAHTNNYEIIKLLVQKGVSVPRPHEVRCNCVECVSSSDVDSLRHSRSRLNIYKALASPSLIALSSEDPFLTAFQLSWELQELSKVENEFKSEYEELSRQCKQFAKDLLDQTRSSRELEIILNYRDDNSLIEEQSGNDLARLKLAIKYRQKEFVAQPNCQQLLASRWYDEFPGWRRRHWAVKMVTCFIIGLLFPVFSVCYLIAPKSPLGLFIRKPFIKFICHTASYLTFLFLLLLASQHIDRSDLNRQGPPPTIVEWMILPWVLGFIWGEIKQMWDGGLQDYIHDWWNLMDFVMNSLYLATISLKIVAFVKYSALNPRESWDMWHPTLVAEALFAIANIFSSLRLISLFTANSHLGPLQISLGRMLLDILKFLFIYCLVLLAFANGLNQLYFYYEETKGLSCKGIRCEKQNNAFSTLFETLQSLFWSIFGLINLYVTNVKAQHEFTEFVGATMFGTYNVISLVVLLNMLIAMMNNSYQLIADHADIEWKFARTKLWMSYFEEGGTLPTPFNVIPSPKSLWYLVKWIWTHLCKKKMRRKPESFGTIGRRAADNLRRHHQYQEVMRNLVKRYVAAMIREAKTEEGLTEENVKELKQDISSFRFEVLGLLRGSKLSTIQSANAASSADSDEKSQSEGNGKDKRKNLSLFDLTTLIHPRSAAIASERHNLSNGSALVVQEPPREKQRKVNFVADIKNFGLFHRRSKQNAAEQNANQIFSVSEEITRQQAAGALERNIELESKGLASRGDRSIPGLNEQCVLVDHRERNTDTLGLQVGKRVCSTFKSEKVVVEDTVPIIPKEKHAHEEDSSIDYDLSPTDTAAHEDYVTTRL

[7] = molecular target: 5-hydroxytryptamine receptor 5A (Homo sapiens, UniProt P47898); assay: Counterscreen for agonists of OPRM1-OPRD1 heterodimerization: luminescence-based cell-based high throughput dose response assay to identify agonists of 5-hydroxytryptamine (serotonin) 5A receptor (HTR5A). [Related pubchem assays (depositor defined):AID504326, AID504355, AID504692, AID504904, AID504905]; format: functional
5-hydroxytryptamine receptor 5A, sequence (P47898 whole entry): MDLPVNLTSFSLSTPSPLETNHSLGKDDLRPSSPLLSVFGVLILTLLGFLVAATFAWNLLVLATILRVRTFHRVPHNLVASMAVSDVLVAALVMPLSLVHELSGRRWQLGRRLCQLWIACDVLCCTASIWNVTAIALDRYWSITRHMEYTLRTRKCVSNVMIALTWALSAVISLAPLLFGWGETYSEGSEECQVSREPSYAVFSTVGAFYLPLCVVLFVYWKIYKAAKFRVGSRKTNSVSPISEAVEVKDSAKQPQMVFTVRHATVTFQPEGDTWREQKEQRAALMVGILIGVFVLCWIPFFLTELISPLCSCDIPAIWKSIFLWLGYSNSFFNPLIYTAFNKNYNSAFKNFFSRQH

[8] = molecular target: Mu-type opioid receptor (Homo sapiens, UniProt P35372); assay: Counterscreen for agonists of heterodimerization of the mu 1 (OPRM1) and delta 1 (OPRD1) opioid receptors: Luminescence-based cell-based high throughput dose response assay to identify agonists of OPRM1 homodimerization.; format: functional;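 also: U2OS cells expressing OPRM1 and beta-arrestin as split beta-galactosidase partners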
Mu-type opioid receptor, sequence (P35372 whole entry): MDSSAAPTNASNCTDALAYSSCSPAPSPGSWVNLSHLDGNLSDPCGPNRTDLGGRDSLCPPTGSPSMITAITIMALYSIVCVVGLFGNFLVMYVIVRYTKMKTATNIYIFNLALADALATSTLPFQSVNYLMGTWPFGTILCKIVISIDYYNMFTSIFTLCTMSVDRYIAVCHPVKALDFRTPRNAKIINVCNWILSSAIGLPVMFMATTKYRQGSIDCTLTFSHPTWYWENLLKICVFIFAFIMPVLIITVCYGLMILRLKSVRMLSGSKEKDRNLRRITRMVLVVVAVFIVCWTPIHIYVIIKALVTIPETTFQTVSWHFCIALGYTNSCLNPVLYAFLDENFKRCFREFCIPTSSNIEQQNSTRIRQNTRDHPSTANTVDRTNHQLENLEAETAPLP

[9] = system: Escherichia coli; assay: microbe, parasite or virus in culture
[10] = system: Escherichia coli; assay: microbe, parasite or virus in culture; remark: listed apart in the source

Cysteine protease ATG4B, sequence (Q9Y4P1 whole entry): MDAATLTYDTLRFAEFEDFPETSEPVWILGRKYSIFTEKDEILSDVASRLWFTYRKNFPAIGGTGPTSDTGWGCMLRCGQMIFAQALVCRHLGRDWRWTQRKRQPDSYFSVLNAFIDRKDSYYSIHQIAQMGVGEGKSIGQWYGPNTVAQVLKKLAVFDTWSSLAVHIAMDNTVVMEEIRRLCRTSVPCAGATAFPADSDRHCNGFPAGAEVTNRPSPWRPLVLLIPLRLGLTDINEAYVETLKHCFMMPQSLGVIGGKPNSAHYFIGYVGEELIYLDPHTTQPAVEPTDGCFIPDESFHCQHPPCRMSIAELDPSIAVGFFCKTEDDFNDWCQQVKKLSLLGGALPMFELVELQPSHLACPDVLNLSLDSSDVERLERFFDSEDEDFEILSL

Row | SMILES | IC50 [1] | IC50 [2] | IC50 [3] | EC50 [4] | also measured
1 | O=C(CNCC1CCCCC1)Nc1ccccc1N1CCCCC1 | 10.8 µM (active) | 9.35 µM (active) |  |  | 
2 | Cc1ccc(C(=O)NCC(=O)OCC(=O)c2ccc(C)c([N+](=O)[O-])c2)cc1 |  |  | 36.4 µM (not active) | > 40 µM (inactive) | 
3 | CCOC(=O)C1(CC2CCCCO2)CCN(Cc2cc(F)ccc2-n2cccn2)CC1 (centres undefined) |  |  |  |  | EC50 [5]: > 92.5 µM (inactive); EC50 [6]: 0.473 µM (active); EC50 [7]: > 92.5 µM (inactive); EC50 [8]: > 92.5 µM (inactive)
4 | CSc1cccc(N=C2C(=O)Nc3ccccc32)c1 |  |  | > 40 µM (not active) | > 40 µM (inactive) | 
5 | COCCCn1c(SCCc2ccccc2)nc2cc(OC)c(OC)cc2c1=N |  |  |  |  | AC50 [9]: 37.6 µM (active); AC50 [10]: 51.3 µM (active)
6 | COC(=O)c1sc(N(C)C)c(C#N)c1-c1ccccc1 | 12.4 µM (active) | 8.76 µM (active) |  |  | 
